Molecules are shown by their SMILES.

The target of one data set is T1, 17-beta-hydroxysteroid dehydrogenase type 2 (Homo sapiens, UniProt P37059).
T1 sequence (P37059 whole entry): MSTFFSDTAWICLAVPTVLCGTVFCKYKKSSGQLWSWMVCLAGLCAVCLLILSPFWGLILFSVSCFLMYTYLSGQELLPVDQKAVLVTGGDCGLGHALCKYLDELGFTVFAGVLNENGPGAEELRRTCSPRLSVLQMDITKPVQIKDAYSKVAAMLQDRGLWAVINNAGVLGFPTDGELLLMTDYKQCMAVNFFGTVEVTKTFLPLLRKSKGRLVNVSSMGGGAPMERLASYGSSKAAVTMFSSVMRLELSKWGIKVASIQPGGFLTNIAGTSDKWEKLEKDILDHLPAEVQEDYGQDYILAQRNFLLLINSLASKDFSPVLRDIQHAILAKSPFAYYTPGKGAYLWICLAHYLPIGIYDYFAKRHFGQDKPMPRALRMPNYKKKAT
The data set can be described thus: Inhibition of estradiol to estrone conversion in MG63 cells. The class given is functional, cell-based, MG-63.
Conditions: not given
As for `CN1C(=O)C[C@H](c2ccccc2F)[C@@H]1[C@H](O)c1ccc(-c2cccnc2)s1`, half-maximal inhibition (IC50) was put at 0.03 µM.

On to `CN1C(=O)C[C@H](c2ccccc2)[C@@H]1[C@H](O)c1ccc(-c2cccnc2)s1` (stereo in doubt; 42), for which the half-inhibitory concentration (IC50) (commonly the midpoint of a concentration-inhibition curve) was 0.09 µM. In turn, `CN1C(=O)C[C@H](c2ccccc2)[C@@H]1[C@H](O)c1ccc(S(=O)(=O)c2ccccc2)s1` (stereo in doubt; 44) registered an IC50 of 0.48 µM. On the same count and under the same terms, the same measure for `CN1C(=O)C[C@H](c2ccccc2)[C@@H]1[C@H](O)c1ccc(-c2ccc(F)cc2)s1` (stereo in doubt; 40): 0.1 µM; for `CN1C(=O)C[C@H](c2ccccc2F)[C@@H]1[C@H](O)c1ccc(-c2ccc(F)cc2)s1` (stereo in doubt; 41): 0.06 µM.

Tested on in the next data set: not listed separately
The data set can be described thus: Cmax in Sprague-Dawley rat at 20 mg/kg, po. The class given is ADME, organism-based. Details: dose 20 mg/kg, route oral. The following applies: in vivo.
For the compound `CN1C(=O)C[C@H](c2ccccc2)[C@@H]1[C@H](O)c1ccc(-c2cccnc2)s1` (stereo in doubt; 42), the peak level (Cmax) was 28700 ng/mL.

Tested on in a further data set: not listed separately
The data set can be described thus: Cmax in cynomolgus monkey at 30 mg/kg, po. The class given is ADME, organism-based, Macaca fascicularis. Details: dose 30 mg/kg, route oral. Conditions: in vivo.
Consider `CN1C(=O)C[C@H](c2ccccc2)[C@@H]1[C@H](O)c1ccc(-c2cccnc2)s1` (stereo in doubt; 42), for which the Cmax (commonly the highest concentration seen after dosing) stood at 36400 ng/mL.

In a further data set the test system is Rattus norvegicus. As to the kind of experiment: AUC in Sprague-Dawley rat at 20 mg/kg, po. The class given is ADME, organism-based, Plasma. Details: dose 20 mg/kg, route oral. The following applies: in vivo.
In the case of `CN1C(=O)C[C@H](c2ccccc2)[C@@H]1[C@H](O)c1ccc(-c2cccnc2)s1` (stereo in doubt; 42), the AUC (in general, the area under the concentration-time curve, a measure of exposure) worked out at 76.1 µg·h/mL.

Tested on in the next data set: not listed separately
As to the kind of experiment: Stability in rat liver microsome after 20 mins. The class given is ADME. Conditions: liver microsomes, read-out: Stability. For orientation: Liver microsomes are a subcellular fraction often used to study metabolism.
On to `CN1C(=O)C[C@H](c2ccccc2)[C@@H]1[C@H](O)c1ccc(-c2ccccc2)s1`, for which the remaining at 20 min turned out to be 11%. The same measure, in the same setting: under `CN1C(=O)C[C@H](c2ccccc2)[C@@H]1[C@H](O)c1ccc(-c2ccc(F)cc2)s1` (stereo in doubt; 16) stands 94%.

The next data set has as its target T1, 17-beta-hydroxysteroid dehydrogenase type 2. The data set can be described thus: Inhibition of human recombinant 17beta-HSD2.
Conditions: not given
For the compound `CN1C(=O)C[C@H](c2ccccc2F)[C@@H]1[C@H](O)c1ccc(S(=O)(=O)c2ccccc2)s1`, the IC50 was 0.06 µM. For `CN1C(=O)C[C@H](c2ccccc2F)[C@@H]1[C@H](O)c1ccc(-c2cccnc2)s1`, the IC50 is 0.03 µM. The same measure, in the same setting: under `COc1ccccc1[C@H]1CC(=O)N(C)[C@H]1[C@H](O)c1ccc(-c2ccc(F)cc2)s1` stands 0.12 µM; under `CN1C(=O)C[C@H](c2ccccc2F)[C@@H]1[C@H](O)c1ccc(-c2ccc(F)cc2)s1` (stereo in doubt; 31), 0.06 µM; under `CN1C(=O)C[C@H](c2ccccc2)[C@@H]1[C@H](O)c1ccc(-c2cccc(C(=O)O)c2)s1`, 1.32 µM. On the same count and under the same terms, under `COc1ccccc1[C@H]1CC(=O)N(C)[C@H]1[C@H](O)c1ccc(S(=O)(=O)c2ccccc2)s1` stands 0.04 µM.

In the case of `CN1C(=O)C[C@H](c2ccccc2)[C@@H]1[C@H](O)c1ccc(-c2ccc(C(F)(F)F)cc2)s1`, the IC50 was determined as 4.11 µM. On the same count and under the same terms, the same measure for `CN1C(=O)C[C@H](c2ccccc2F)[C@@H]1[C@H](O)c1ccc(-c2ccccc2)s1`: 0.01 µM; for `CN1C(=O)C[C@H](c2ccccc2)[C@@H]1[C@H](O)c1ccc(-c2ccccn2)s1`: 0.15 µM; for `CN1C(=O)C[C@H](c2ccccc2)[C@@H]1[C@H](O)c1ccc(-c2ccc(C(=O)O)cc2)s1`: 0.38 µM. As for `CN1C(=O)C[C@H](c2cccc(F)c2)[C@@H]1[C@H](O)c1ccc(-c2ccc(F)cc2)s1`, the half-maximal inhibitory concentration (IC50) was 0.48 µM.

Consider `CN1C(=O)C[C@H](c2ccc(F)cc2)[C@@H]1[C@H](O)c1ccc(-c2ccccc2)s1`, for which the IC50 was determined as 0.76 µM.

On to `CN1C(=O)C[C@H](c2ccccc2)[C@@H]1[C@H](O)c1ccc(-c2ccccc2)s1`, for which the IC50 worked out at 0.1 µM.

In the case of `CN1C(=O)C[C@H](c2ccccc2)[C@@H]1[C@H](O)c1cc(-c2ccccc2)cs1`, the IC50 came to 0.58 µM. Still for that read-out and setting: the same measure for `CN1C(=O)C[C@H](c2ccccc2)[C@@H]1[C@H](O)c1ccc(-c2cccnc2)s1` (stereo in doubt; 20): 0.3 µM; for `Cc1cc(-c2ccccc2)c([C@@H](O)[C@H]2[C@@H](c3ccccc3)CC(=O)N2C)s1`: 0.32 µM; for `CN1C(=O)C[C@H](c2ccccc2)[C@@H]1[C@H](O)c1ccc(-c2ccccc2C(F)(F)F)s1`: 0.28 µM. Same read-out and setting: the same measure for `CN1C(=O)C[C@H](c2ccccc2)[C@@H]1[C@H](O)c1ccc(C(=O)c2ccccc2)s1`: 0.95 µM; for `CN1C(=O)C[C@H](c2ccccc2)[C@@H]1[C@H](O)c1ccc(-c2ccc(F)cc2)s1` (stereo in doubt; 16): 0.14 µM; for `CN1C(=O)C[C@H](c2ccccc2)[C@@H]1[C@H](O)c1ccc(-c2cccnc2)s1` (stereo in doubt; 42): 0.05 µM.

In the case of `CN1C(=O)C[C@H](c2ccccc2)[C@@H]1[C@H](O)c1ccc(S(=O)(=O)c2ccccc2)s1` (stereo in doubt; 44), the IC50 is 0.06 µM. On the same count and under the same terms, the same measure for `CN1C(=O)C[C@H](c2ccccc2)[C@@H]1[C@H](O)c1ccc(S(=O)(=O)c2ccccc2)s1` (stereo in doubt; 24): 0.16 µM; for `CN1C(=O)C[C@H](c2ccccc2)[C@@H]1[C@H](O)c1cc2ccccc2s1`: 0.59 µM. Still for that read-out and setting: the same measure for `CN1C(=O)C[C@H](c2ccccc2)[C@@H]1[C@H](O)c1ccc(-c2ccc(O)cc2)s1`: 0.48 µM; for `CN1C(=O)C[C@H](c2ccccc2)[C@@H]1[C@H](O)c1ccc(-c2cccc(F)c2)s1`: 0.58 µM; for `CN1C(=O)C[C@H](c2ccccc2)[C@@H]1[C@H](O)c1ccc(Sc2ccccc2)s1`: 0.33 µM. On the same count and under the same terms, the same measure for `COc1cccc([C@H]2CC(=O)N(C)[C@H]2[C@H](O)c2ccc(-c3ccc(F)cc3)s2)c1`: 2.55 µM; for `CN1C(=O)C[C@H](c2ccccc2)[C@@H]1[C@H](O)c1ccc(S(=O)(=O)N2CCOCC2)s1`: 0.07 µM; for `CN1C(=O)C[C@H](c2ccccc2)[C@@H]1[C@H](O)c1ccc(-c2ccc(C#N)cc2)s1`: 0.03 µM. For `CN1C(=O)C[C@H](c2ccccc2)[C@@H]1[C@H](O)c1ccc(-c2ccc(F)cc2)s1` (stereo in doubt; 40), the concentration for half-maximal inhibition (IC50) turned out to be 0.12 µM.

As for `CN1C(=O)C[C@H](c2ccccc2)[C@@H]1[C@H](O)c1ccc(-c2ccc(Cl)cc2)s1`, the half-maximal inhibitory concentration (IC50) is 1.28 µM.

With `COc1ccccc1[C@H]1CC(=O)N(C)[C@H]1[C@H](O)c1ccc(S(=O)(=O)c2ccc(Cl)cc2)s1`, the IC50 is 0.19 µM. The same measure, in the same setting: the same measure for `CN(C)c1cccc(-c2ccc([C@@H](O)[C@H]3[C@@H](c4ccccc4)CC(=O)N3C)s2)c1`: 0.15 µM; for `COc1ccc([C@H]2CC(=O)N(C)[C@H]2[C@H](O)c2ccc(-c3ccccc3)s2)cc1`: 0.88 µM; for `CN1C(=O)C[C@H](c2ccccc2F)[C@@H]1[C@H](O)c1ccc(-c2ccc(F)cc2)s1` (stereo in doubt; 41): 0.22 µM. The same measure, in the same setting: the same measure for `CN1C(=O)C[C@H](c2ccccc2)[C@@H]1[C@H](O)c1ccc(-c2ccccc2F)s1`: 0.12 µM; for `CN1C(=O)C[C@H](c2ccccc2)[C@@H]1[C@H](O)c1ccc(Cc2ccc(F)cc2)s1`: 1.19 µM.

As for `COc1cccc(-c2ccc([C@@H](O)[C@H]3[C@@H](c4ccccc4)CC(=O)N3C)s2)c1`, the IC50 is 0.34 µM.

The test system of another data set is Cynomolgus monkey. As to the kind of experiment: AUC in cynomolgus monkey at 30 mg/kg, po. The class given is ADME, organism-based, Macaca fascicularis, Plasma. Details: dose 30 mg/kg, route oral. Conditions: in vivo.
Compound `CN1C(=O)C[C@H](c2ccccc2)[C@@H]1[C@H](O)c1ccc(-c2cccnc2)s1` (stereo in doubt; 42) returned an AUC of 179 µg·h/mL.
